The values that follow come from patent US12509424B2, “Compound and composition as PDGF receptor kinase inhibitor” (NIPPON SHINYAKU CO., LTD., priority 2019, dated 2025).

In test [1] the test system is pulmonary arterial smooth muscle cells. The experiment in a line: Suppression of proliferation of pulmonary arterial smooth muscle cells (PDGF-BB stimulation, BrdU). The format is cell-based. Conditions: PASMC, read-out: Human normal PASMC proliferation suppression (PDGF stimulation_IC50). An outline of the steps:
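Healthy human pulmonary arterial smooth muscle cells, serum-starved a day in 0.1% FBS medium, were treated with compound at final 3 to 10,000 nM plus human PDGF-BB (final 10 ng/mL) and BrdU. After 1 day of culture, BrdU uptake was measured with an anti-BrdU antibody.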

A further test concerns the target PDGFR-β (Homo sapiens (Human), UniProt P09619). Briefly: PDGFR-β tyrosine kinase inhibitory action (HTRF KinEASE-TK). The test is classed as biochemical. Conditions: PDGFR-β enzyme 1 ng/μL, 30° C. for 30 minutes; read-out: PDGF-β IC50. An outline of the steps: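 Recombinant PDGFR-β at 1 ng/μL final with TK substrate-3-biotin in a substrate solution containing 0.6 μM ATP; buffer 50 mM HEPES pH 7.0, 5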
A general note: Time-resolved FRET reads energy transfer from a long-lived donor to a nearby acceptor.

Test [2] addresses TEL-KIT fusion gene transfected cells (Ba/F3). Briefly: Suppression of proliferation of TEL-KIT fusion gene transfected Ba/F3 cells.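 Note: viable cells quantified via formazan from tetrazolium reduction, inhibition scaled with 0.1% DMSO control as 0% and medium-only blank as 100%, IC50 from two-parameter logistic fit.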 As to conditions: read-out: KIT/BaF3 proliferation inhibition (IC50); TEL-KIT expressing Ba/F3 cells, 72 hours, final concentration 0.1 to 10,000 nM.
Test [3] addresses TEL-PDGFRβ fusion gene transfected cells (Ba/F3). The experiment in a line: Suppression of proliferation of TEL-PDGFRβ fusion gene transfected Ba/F3 cells. The format is cell-based, human. Conditions: TEL-PDGFRβ expressing Ba/F3 cells, 72 hours, final concentration 0.1 to 10,000 nM; read-out: PDGFR β/BaF3 proliferation inhibition (IC50). The text has this:
2. Preparation of Test Substance
4. Analysis of Measurement Results

[4] abbreviates: 24 h, healthy human derived pulmonary arterial smooth muscle cells, human PDGF-BB 10 ng/mL stimulation, BrdU uptake after 1 day, test substance final concentration 3 to 10,000 nM.
[5] abbreviates: human PDGF-BB 10 ng/mL, BrdU uptake, final concentration 3 to 10,000 nM.

Where two headings read alike, the source gives them in different places.

TEL-KIT fusion gene transfected cells (Ba/F3), sequence (P10721 26-976 limits assumed, change not shown): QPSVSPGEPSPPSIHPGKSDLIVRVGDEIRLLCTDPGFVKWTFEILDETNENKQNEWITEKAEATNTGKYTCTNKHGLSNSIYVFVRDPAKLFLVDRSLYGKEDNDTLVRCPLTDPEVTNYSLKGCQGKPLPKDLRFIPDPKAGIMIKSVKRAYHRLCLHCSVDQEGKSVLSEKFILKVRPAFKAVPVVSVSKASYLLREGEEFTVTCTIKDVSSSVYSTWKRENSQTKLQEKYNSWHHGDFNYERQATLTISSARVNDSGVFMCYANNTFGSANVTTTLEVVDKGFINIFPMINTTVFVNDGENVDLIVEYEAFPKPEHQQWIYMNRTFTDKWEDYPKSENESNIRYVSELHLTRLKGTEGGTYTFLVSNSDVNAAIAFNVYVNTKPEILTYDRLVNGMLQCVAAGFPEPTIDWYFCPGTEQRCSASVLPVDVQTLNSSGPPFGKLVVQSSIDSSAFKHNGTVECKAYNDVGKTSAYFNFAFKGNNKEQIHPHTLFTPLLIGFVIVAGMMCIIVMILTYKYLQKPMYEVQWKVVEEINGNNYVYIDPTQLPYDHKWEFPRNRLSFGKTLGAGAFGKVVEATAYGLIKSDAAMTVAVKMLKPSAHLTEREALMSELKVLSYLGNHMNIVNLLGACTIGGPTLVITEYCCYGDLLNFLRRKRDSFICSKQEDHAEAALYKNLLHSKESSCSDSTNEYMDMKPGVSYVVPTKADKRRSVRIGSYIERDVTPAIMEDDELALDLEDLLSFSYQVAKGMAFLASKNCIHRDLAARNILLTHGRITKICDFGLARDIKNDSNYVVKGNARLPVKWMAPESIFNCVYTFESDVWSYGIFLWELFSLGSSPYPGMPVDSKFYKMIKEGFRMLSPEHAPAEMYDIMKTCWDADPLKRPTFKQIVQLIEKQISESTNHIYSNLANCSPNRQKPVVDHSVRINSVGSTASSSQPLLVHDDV
TEL-PDGFRβ fusion gene transfected cells (Ba/F3), sequence (P09619 33-1106 limits assumed, change not shown): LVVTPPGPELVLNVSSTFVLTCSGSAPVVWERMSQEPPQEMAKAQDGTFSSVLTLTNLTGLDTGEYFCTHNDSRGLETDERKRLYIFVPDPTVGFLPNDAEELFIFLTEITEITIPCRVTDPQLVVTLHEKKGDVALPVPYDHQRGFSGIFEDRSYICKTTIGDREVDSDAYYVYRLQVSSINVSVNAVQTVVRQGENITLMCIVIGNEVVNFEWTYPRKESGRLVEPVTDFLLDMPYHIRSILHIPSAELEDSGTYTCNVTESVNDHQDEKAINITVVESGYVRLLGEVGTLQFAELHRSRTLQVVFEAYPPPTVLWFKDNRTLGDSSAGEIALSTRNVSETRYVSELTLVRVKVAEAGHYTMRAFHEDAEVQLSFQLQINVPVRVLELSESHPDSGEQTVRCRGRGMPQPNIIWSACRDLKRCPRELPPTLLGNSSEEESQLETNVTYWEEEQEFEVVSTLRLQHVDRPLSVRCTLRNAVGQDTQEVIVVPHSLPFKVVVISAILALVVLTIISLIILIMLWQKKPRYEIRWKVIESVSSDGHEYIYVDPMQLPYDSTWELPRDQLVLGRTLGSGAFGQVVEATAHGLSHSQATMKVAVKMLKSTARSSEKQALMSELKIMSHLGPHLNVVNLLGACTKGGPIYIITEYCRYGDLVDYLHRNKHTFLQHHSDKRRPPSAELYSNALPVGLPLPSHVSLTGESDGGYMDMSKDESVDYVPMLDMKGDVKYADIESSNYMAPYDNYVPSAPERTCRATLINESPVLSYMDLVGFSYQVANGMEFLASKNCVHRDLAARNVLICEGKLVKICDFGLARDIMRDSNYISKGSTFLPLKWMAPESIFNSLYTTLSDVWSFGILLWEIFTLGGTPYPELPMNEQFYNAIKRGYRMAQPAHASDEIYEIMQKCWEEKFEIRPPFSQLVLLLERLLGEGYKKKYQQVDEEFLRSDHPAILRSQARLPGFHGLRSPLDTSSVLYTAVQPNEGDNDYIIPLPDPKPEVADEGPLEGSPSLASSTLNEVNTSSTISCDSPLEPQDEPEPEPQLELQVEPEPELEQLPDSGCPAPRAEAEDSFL
PDGFR-β, sequence (P09619 33-1106): as the sequence (P09619 33-1106 limits assumed, change not shown) above

For the compound `Cc1ccc(C(=O)N[C@H]2CCCC[C@@H]2O)cc1NCc1cncc(-c2ccccc2)n1` [Example 101, N-[(1S,2S)-2-hydroxycyclohexyl]-4-methyl-3-{[(6-phenylpyrazin-2-yl)methyl]amino}benzamide], the IC50 in test [1] (setting [4]) was found to be 71 nM; on PDGFR-β it was 170 nM; in test [2], 9000 nM; in test [3], 56 nM.

With `Cc1ccc(C(=O)N[C@H]2CCCC[C@@H]2O)cc1NC(=O)c1cncc(-c2cccc(Cl)c2)c1` [Example 11, 5-(3-chlorophenyl)-N-(5-{[(1S,2S)-2-hydroxycyclohexyl]carbamoyl}-2-methylphenyl)pyridine-3-carboxamide], the IC50 was 49 nM in test [1] (setting [5]), 17 nM on PDGFR-β, 310 nM in test [2] and 13 nM in test [3].

Take `Cc1ccc(C(=O)N[C@H]2CCCC[C@@H]2O)cc1NCc1cnc(N)nc1` [Example 113, 3-{[(2-aminopyrimidin-5-yl)methyl]amino}-N-[(1S,2S)-2-hydroxycyclohexyl]-4-methylbenzamide]: the IC50 in test [1] (setting [4]) was found to be 51 nM; at PDGFR-β, 83 nM; in test [2] it was 700 nM; in test [3], 0.2 nM.

For `Cc1ccc(C(=O)N[C@H]2CCCC[C@@H]2O)cc1NCc1cncc(-c2ccc(N)cc2)c1` [Example 99, 3-({[5-(4-aminophenyl)pyridin-3-yl]methyl}amino)-N-[(1S,2S)-2-hydroxycyclohexyl]-4-methylbenzamide], the IC50 in test [1] (setting [4]) is 27 nM; on PDGFR-β, 13 nM; in test [2], 480 nM; in test [3], 0.5 nM.

As to `Cc1ccc(C(=O)N[C@H]2CCCC[C@@H]2O)cc1NCc1cncc(-c2ncc(F)cn2)c1` [Example 107, 3-({[5-(5-fluoropyrimidin-2-yl)pyridin-3-yl]methyl}amino)-N-[(1S,2S)-2-hydroxycyclohexyl]-4-methylbenzamide], the IC50 in test [1] (setting [4]) came out at 110 nM; at PDGFR-β, 190 nM; in test [2], 1200 nM; in test [3], 19 nM.

With `Cc1ccc(C(=O)N[C@H]2CCCC[C@@H]2O)cc1NC(=O)c1cncc(-c2cc(F)c(F)c(F)c2)c1` [Example 42, N-(5-{[(1S,2S)-2-hydroxycyclohexyl]carbamoyl}-2-methylphenyl)-5-(3,4,5-trifluorophenyl)pyridine-3-carboxamide], the IC50 is 95 nM in test [1] (setting [4]), 230 nM at PDGFR-β, 7900 nM in test [2] and 41 nM in test [3].

`Cc1ccc(C(=O)N[C@H]2CCCC[C@@H]2O)cc1NCc1cncc(-c2cnccn2)c1` [Example 115, N-[(1S,2S)-2-hydroxycyclohexyl]-4-methyl-3-({[5-(pyrazin-2-yl)pyridin-3-yl]methyl}amino)benzamide]: the IC50 came to 290 nM in test [1] (setting [4]), 260 nM on PDGFR-β, 1700 nM in test [2] and 1.4 nM in test [3].

Regarding `O=C(N[C@H]1CCCC[C@@H]1O)c1ccc(Cl)c(C#Cc2cncc(-c3ccccc3)c2)c1` [Example 58, 4-chloro-N-[(1S,2S)-2-hydroxycyclohexyl]-3-[(5-phenylpyridin-3-yl)ethynyl]benzamide], the IC50 in test [1] (setting [4]) was 57 nM; at PDGFR-β it was 12 nM; in test [2] it was 1800 nM; in test [3], 110 nM.

With `Cc1ccc(C(=O)N[C@H]2CCCC[C@@H]2O)cc1NC(=O)c1cncc(-c2ccc(Cl)cc2)c1` [Example 9, 5-(4-chlorophenyl)-N-(5-{[(1S,2S)-2-hydroxycyclohexyl]carbamoyl}-2-methylphenyl)pyridine-3-carboxamide], the IC50 in test [1] (setting [5]) amounted to 46 nM; on PDGFR-β, 26 nM; in test [2], 530 nM; in test [3], 22 nM.

On to `Cc1ccc(C(=O)N[C@H]2CCCC[C@@H]2O)cc1C#Cc1cncc(-c2cnccn2)c1` [Example 63, N-[(1S,2S)-2-hydroxycyclohexyl]-4-methyl-3-{[5-(pyrazin-2-yl)pyridin-3-yl]ethynyl}benzamide], for which the IC50 in test [1] (setting [4]) turned out to be 10 nM; at PDGFR-β it was 15 nM; in test [2], 240 nM; in test [3] it was 0.8 nM.

On to `Cc1ccc(C(=O)N[C@H]2CCCC[C@@H]2O)cc1C#Cc1cncc(-c2ncccn2)c1` [Example 62, N-[(1S,2S)-2-hydroxycyclohexyl]-4-methyl-3-{[5-(pyrimidin-2-yl)pyridin-3-yl]ethynyl}benzamide], for which the IC50 in test [1] (setting [4]) was 34 nM; on PDGFR-β, 6.5 nM; in test [2], 87 nM; in test [3], 1.7 nM.

Consider `Cc1ccc(C(=O)N[C@H]2CCCC[C@@H]2O)cc1NC(=O)c1cnc(CC2CC2)s1` [Example 3, 2-(cyclopropylmethyl)-N-(5-{[(1S,2S)-2-hydroxycyclohexyl]carbamoyl}-2-methylphenyl)-1,3-thiazole-5-carboxamide], for which the IC50 in test [1] (setting [5]) turned out to be 30 nM; at PDGFR-β it was 82 nM; in test [2] it was 620 nM; in test [3], 1.4 nM.

For the compound `Cc1ccc(C(=O)N[C@H]2CCCC[C@@H]2O)cc1C#Cc1cncc(-c2ccccn2)c1` [Example 66, 3-[([2,3′-bipyridin]-5′-yl)ethynyl]-N-[(1S,2S)-2-hydroxycyclohexyl]-4-methylbenzamide], the IC50 in test [1] (setting [4]) was 30 nM; on PDGFR-β, 5.4 nM; in test [2] it was 100 nM; in test [3], 2.5 nM.

Consider `Cc1ccc(C(=O)N[C@H]2CCCC[C@@H]2O)cc1NCc1cnn2ccsc12` [Example 105, N-[(1S,2S)-2-hydroxycyclohexyl]-4-methyl-3-{[(pyrazolo[5,1-b][1,3]thiazol-7-yl)methyl]amino}benzamide], for which the IC50 is 28 nM in test [1] (setting [4]), 230 nM at PDGFR-β, 920 nM in test [2] and 4.7 nM in test [3].

Consider `Cc1ccc(C(=O)N[C@H]2CCCC[C@@H]2O)cc1NC(=O)c1cncc(-c2ccccc2C)c1` [Example 12, N-(5-{[(1S,2S)-2-hydroxycyclohexyl]carbamoyl}-2-methylphenyl)-5-(2-methylphenyl)pyridine-3-carboxamide], for which the IC50 in test [1] (setting [5]) was 65 nM; on PDGFR-β, 170 nM; in test [2], 800 nM; in test [3], 35 nM.

With `Cc1ccc(C(=O)N[C@H]2CCCC[C@@H]2O)cc1CNc1cncc(-c2ncccn2)c1` [Example 147, N-[(1S,2S)-2-hydroxycyclohexyl]-4-methyl-3-({[5-(pyrimidin-2-yl)pyridin-3-yl]amino}methyl)benzamide], the IC50 came out at 52 nM in test [1] (setting [4]), 24 nM at PDGFR-β, 100 nM in test [2] and 5.6 nM in test [3].

Turning to `Cc1ccc(C(=O)N[C@H]2CCCC[C@@H]2O)cc1NC(=O)c1cnc(NCC(C)(C)C)s1` [Example 41, 2-[(2,2-dimethylpropyl)amino]-N-(5-{[(1S,2S)-2-hydroxycyclohexyl]carbamoyl}-2-methylphenyl)-1,3-thiazole-5-carboxamide], the IC50 in test [1] (setting [4]) came to 210 nM; on PDGFR-β, 130 nM; in test [2], 2100 nM; in test [3], 35 nM.

Regarding `Cc1ccc(C(=O)N[C@H]2CCCC[C@@H]2O)cc1NCc1cncc(Br)c1` [Example 91, 3-{[(5-bromopyridin-3-yl)methyl]amino}-N-[(1S,2S)-2-hydroxycyclohexyl]-4-methylbenzamide], the IC50 was 150 nM in test [1] (setting [4]), 150 nM at PDGFR-β, 2700 nM in test [2] and 26 nM in test [3].

Take `CCC[C@@H](CO)NC(=O)c1ccc(C)c(NC(=O)c2cncc(-c3ccccc3)c2)c1` [Example 14, N-(5-{[(2S)-1-hydroxypentan-2-yl]carbamoyl}-2-methylphenyl)-5-phenylpyridine-3-carboxamide]: the IC50 in test [1] (setting [5]) came to 48 nM; at PDGFR-β it was 40 nM; in test [2] it was 330 nM; in test [3], 11 nM.

Consider `Cc1ccc(C(=O)N[C@H]2CCCC[C@@H]2O)cc1NC(=O)c1cnc(-c2ccccc2)o1` [Example 5, N-(5-{[(1S,2S)-2-hydroxycyclohexyl]carbamoyl}-2-methylphenyl)-2-phenyl-1,3-oxazole-5-carboxamide], for which the IC50 came to 48 nM in test [1] (setting [5]), 6.1 nM on PDGFR-β, 170 nM in test [2] and 5.8 nM in test [3].

On to `Cc1ccc(C(=O)N[C@H]2CCCC[C@@H]2O)cc1C#Cc1cncc(-c2cccc(F)c2)n1` [Example 70, 3-{[6-(3-fluorophenyl)pyrazin-2-yl]ethynyl}-N-[(1S,2S)-2-hydroxycyclohexyl]-4-methylbenzamide], for which the IC50 in test [1] (setting [4]) came out at 50 nM; on PDGFR-β it was 20 nM; in test [2] it was 300 nM; in test [3], 1.8 nM.

As to `Cc1ccc(C(=O)N[C@H]2CCCC[C@@H]2O)cc1OCc1cncc(-c2ncccn2)c1` [Example 166, N-[(1S,2S)-2-hydroxycyclohexyl]-4-methyl-3-{[5-(pyrimidin-2-yl)pyridin-3-yl]methoxy}benzamide], the IC50 amounted to 65 nM in test [1] (setting [4]), 49 nM at PDGFR-β, 1200 nM in test [2] and 2.5 nM in test [3].
